Values after ≈ are worked out from the molar mass of the structure shown. Active and inactive are the calls of the source. The calls are words filed in the database; no cut-off is given here.
What was measured:
Mus musculus = assay: In vivo Inhibition of AKT phosphorylation at Ser473 residue in athymic nude mouse xenografted with rat Rat1-myr-p110alpha cells at 20 mg/kg, po qd measured after 1 to 10 hrs; format: functional, organism-based; conditions: time 1-10 hrs
[1] = AUCinfinity in Beagle dog at 6 mg/kg, po measured upto 24 hrs using crystalline form of sample by LC-MS/MS analysis; format: ADME, organism-based, Canis lupus familiaris; set-up: dose 6 mg/kg, time < 24 hrs, route po; conditions: in vivo
[2] = Tlast in athymic nude mouse xenografted with rat Rat1 cells expressing myr-p110alpha at 20 mg/kg, po measured after 8 days by LC-MS/MS analysis; format: ADME, organism-based; conditions: in vivo, 192 h, time 8 day
[3] = Lipophilicity, logD of compound at pH 6.5; format: physicochemical; conditions: buffer
[4] = Dose normalized Cmax in beagle dog at 0.3 mg/kg, po measured upto 24 hrs by LC-MS/MS analysis; format: ADME, organism-based, Canis lupus familiaris; conditions: in vivo
[5] = Aqueous solubility of compound in buffer at pH 4 by HPLC analysis; format: physicochemical
Tubulin (Sus scrofa) = Tubulin (Sus scrofa) (UniProt P02554+P02550); assay: Inhibition of porcine tubulin polymerization assessed as inhibition of microtubule polymerization at 15 to 30 uM measured after 1 hr; format: protein assay; conditions: dose 15-30 µM
[6] = Efflux ratio of apparent permeability from […] in human Caco-2 cells at 10 uM incubated upto 120 mins by LC-MS/MS analysis; format: ADME, cell-based; conditions: caco-2, 2 h
cells = conditions: Rattus norvegicus, Rat1, 1 h
[7] = Dose normalized Cmax in Sprague-Dawley rat at 30 mg/kg, po measured upto 24 hrs by LC-MS/MS analysis; format: ADME, organism-based; conditions: in vivo
[8] = target: T1, Phosphatidylinositol 4,5-bisphosphate 3-kinase catalytic subunit delta isoform (Homo sapiens, UniProt O00329); assay: Inhibition of PI3Kdelta (unknown origin) using phosphatidylinositol as substrate measured for 15 to 60 mins by TR-FRET based Adapta universal kinase assay
T1 sequence (O00329 whole entry): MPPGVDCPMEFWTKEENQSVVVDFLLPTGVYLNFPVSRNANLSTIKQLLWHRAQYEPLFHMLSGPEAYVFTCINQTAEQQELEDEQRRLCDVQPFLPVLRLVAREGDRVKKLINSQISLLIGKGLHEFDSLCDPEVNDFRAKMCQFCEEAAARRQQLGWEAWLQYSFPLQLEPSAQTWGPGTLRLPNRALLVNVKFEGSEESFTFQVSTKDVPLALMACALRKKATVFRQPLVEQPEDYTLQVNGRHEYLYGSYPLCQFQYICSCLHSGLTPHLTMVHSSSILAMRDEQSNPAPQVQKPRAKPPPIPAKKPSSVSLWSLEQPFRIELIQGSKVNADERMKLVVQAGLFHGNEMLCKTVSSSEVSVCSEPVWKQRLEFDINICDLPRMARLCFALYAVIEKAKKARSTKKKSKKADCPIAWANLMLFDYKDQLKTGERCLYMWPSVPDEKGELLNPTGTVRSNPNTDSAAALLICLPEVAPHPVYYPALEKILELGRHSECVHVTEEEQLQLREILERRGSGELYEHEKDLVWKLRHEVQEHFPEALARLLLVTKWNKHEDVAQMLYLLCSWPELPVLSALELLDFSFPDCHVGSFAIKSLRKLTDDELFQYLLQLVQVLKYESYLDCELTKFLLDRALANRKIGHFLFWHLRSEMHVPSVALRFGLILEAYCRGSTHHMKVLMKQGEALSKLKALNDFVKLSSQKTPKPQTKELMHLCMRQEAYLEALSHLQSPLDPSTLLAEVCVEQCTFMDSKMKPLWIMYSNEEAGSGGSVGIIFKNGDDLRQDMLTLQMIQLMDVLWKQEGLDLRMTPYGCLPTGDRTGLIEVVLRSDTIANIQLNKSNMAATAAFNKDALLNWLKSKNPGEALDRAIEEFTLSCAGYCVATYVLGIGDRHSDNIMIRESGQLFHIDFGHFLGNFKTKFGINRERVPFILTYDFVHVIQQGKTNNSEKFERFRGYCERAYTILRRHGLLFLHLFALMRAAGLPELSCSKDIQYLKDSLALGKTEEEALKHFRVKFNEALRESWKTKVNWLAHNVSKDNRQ

[9] = Effect on plasma insulin level in athymic nude mouse xenografted with rat Rat1 cells expressing myr-p110alpha at 10 mg/kg, po qd measured upto 14 hrs by glucometer analysis; format: toxicity, organism-based; conditions: in vivo
Rat1 = assay: Antitumor activity at rat Rat1 cells expressing myr-p110alpha xenografted in athymic nude mouse assessed as tumor growth inhibition at 40 mg/kg, po bid measured after 9 days; format: functional; conditions: Rat1, 216 h, time 9 day
[10] = Dose normalized AUC(0 to Tlast) in athymic nude mouse xenografted with rat Rat1 cells expressing myr-p110alpha at 40 mg/kg, po measured after 8 days by LC-MS/MS analysis; format: ADME, organism-based; conditions: in vivo, 192 h, time 8 day
[11] = Cmax in athymic nude mouse xenografted with rat Rat1 cells expressing myr-p110alpha at 20 mg/kg, po measured after 8 days by LC-MS/MS analysis; format: ADME, organism-based; set-up: time 8 day, dose 20 mg/kg, route po; conditions: in vivo

Sequence of Tubulin (Sus scrofa) (P02550 whole entry, looked up): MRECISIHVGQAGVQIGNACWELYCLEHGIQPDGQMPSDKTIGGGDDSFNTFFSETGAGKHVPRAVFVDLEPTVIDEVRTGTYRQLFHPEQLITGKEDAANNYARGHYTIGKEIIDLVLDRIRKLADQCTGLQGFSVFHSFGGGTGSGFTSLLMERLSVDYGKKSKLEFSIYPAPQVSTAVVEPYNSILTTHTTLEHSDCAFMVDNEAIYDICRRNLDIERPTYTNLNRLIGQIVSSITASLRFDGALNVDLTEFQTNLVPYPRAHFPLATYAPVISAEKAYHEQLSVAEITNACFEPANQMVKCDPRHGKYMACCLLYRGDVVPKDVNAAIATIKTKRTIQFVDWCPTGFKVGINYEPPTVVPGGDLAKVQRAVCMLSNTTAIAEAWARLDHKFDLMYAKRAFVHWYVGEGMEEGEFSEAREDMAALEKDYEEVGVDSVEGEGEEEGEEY
Sequence of Tubulin (Sus scrofa) (P02554 whole entry, looked up): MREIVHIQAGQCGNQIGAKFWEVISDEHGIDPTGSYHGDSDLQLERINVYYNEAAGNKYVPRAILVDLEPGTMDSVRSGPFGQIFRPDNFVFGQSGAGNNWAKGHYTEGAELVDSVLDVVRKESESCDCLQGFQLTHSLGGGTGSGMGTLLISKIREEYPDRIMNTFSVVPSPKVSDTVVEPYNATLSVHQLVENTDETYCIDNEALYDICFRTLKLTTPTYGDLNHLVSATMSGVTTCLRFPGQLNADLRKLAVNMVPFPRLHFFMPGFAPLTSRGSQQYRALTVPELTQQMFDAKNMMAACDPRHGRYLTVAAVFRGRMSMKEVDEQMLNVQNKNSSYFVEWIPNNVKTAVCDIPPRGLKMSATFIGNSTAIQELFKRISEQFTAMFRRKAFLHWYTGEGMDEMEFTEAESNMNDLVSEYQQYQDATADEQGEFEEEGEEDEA

AUC(0-inf) [1]: 44.6 µM·h | Tlast [2]: 14 h | logD [3]: 2 | Cmax/dose [4]: 1121 nM | solubility [5]: 31 µM (≈ 14.1 µg/mL) | inhibition (Tubulin (Sus scrofa)): Active | Ratio [6]: 2.2 | IC50 (cells): 26 nM | Cmax/dose [7]: 41 nM | IC50 [8]: 8.3 nM | AUC/dose [10]: 1.35 µM·h | Cmax [11]: 2910 nM
Compound: C[C@H]1OC(=O)N(c2nc(-c3cnc(N)nc3C(F)(F)F)cc(N3CCOCC3)n2)[C@H]1CO
inhibition (Mus musculus): Active | Activity [9]: Toxic | inhibition in vivo at 40 mg/kg (Rat1): > 80%
